Assay results as given in patent publication US7531569B2, “Process for preparing (3-oxo-2,3-dihydro-1H-isoindol-1-yl) acetylguanidine derivatives” (sanofi-aventis Deutschland GmbH, priority 2003, dated 2009).

Experiments:
[1] = Stated solid-state and physicochemical properties of the salt (no method described); conditions: qualitative statement, no conditions given
human NHE-1 = target: T1, human NHE-1 (Homo sapiens, UniProt P19634); assay: FLIPR assay of pHi recovery in transfected LAP-1 cell lines expressing human NHE-1; type: cell-based; conditions: transfected cells expressing human NHE-1, read-out: NHE1 inhibition IC50
T1 construct: expressed in transfected cells; host or cells: LAP-1 (parental line without endogenous NHE activity), G418 selection
T1 sequence (P19634 whole entry): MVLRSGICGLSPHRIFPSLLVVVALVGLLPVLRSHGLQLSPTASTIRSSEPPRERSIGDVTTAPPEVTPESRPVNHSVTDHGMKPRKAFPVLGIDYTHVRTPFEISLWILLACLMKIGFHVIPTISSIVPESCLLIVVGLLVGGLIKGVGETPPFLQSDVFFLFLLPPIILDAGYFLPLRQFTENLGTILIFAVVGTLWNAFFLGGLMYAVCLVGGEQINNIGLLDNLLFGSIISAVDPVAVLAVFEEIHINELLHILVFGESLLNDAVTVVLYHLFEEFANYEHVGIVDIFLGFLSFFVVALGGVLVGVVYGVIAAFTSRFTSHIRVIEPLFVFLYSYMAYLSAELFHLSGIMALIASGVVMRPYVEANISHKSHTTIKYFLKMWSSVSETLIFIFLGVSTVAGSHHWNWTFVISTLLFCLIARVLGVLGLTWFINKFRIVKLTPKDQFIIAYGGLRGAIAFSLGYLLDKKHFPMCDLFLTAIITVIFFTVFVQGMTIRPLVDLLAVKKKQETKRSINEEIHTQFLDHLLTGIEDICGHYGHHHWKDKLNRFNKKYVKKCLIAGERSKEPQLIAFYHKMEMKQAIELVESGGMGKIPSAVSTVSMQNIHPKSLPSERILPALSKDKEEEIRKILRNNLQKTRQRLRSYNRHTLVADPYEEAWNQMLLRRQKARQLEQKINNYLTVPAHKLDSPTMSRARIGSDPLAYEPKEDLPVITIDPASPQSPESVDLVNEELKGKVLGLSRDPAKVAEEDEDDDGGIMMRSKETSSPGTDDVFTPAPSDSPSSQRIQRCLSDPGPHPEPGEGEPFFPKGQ
Procedure: The inhibitory concentration IC50 for NHE-1 inhibition was determined as follows:
The NHE-1 inhibition IC50 was determined in an FLIPR assay by measurement of the recovery in pHi in transfected cell lines which express human NHE-1.
The assay was carried out in an FLIPR (fluorescent imaging plate reader) with black-walled 96-well microtiter plates having clear bases.
The growth medium for the transfected cells (Iscove+10% fetal calf serum) additionally contained G418 as a selection antibiotic in order to ensure the presence of the transfected sequences.
The actual assay started with the removal of the growth medium and addition of 100 μl of loading buffer per well (5 μM BCECF-AM [2′,7′-bis(carboxyethyl)-5- (and -6-)carboxyfluorescein, acetoxymethyl ester] in 20 mM NH4Cl, 115 mM choline chloride, 1 mM MgCl2, 1 mM CaCl2, 5 mM KCl, 20 mM HEPES, 5 mM glucose; pH 7.4 [adjusted with KOH]). The cells were then incubated at 37° C. for 20 minutes. This incubation led to loading of the cells with the fluorescent dye whose fluorescence intensity depends on pHi, and with NH4Cl which makes the cells slightly alkaline.
The nonfluorescent dye precursor BCECF-AM is, as the ester, membrane-permeable. Inside the cell, esterases release the actual BCECF dye which is membrane-impermeable. […]

hygroscopicity [1]	solubility [1]	tendency to racemization [1]	IC50 (human NHE-1)	SMILES
particularly low hygroscopicity	good solubility	low tendency to racemization	–	NC(N)=NC(=O)C[C@H]1c2cc(C(F)(F)F)ccc2C(=O)N1CC(F)(F)F.O=C(O)/C=C/C(=O)O [(S)-N-{2-[3-Oxo-2-(2,2,2-trifluoroethyl)-6-trifluoromethyl-2,3-dihydro-1H-isoindol-1-yl]-acetyl}guanidine hydrogenfumarate hydrate]
–	–	–	0.3 nM	NC(N)=NC(=O)C[C@H]1c2cc(C(F)(F)F)ccc2C(=O)N1CC(F)(F)F [(S)-N-{2-[3-Oxo-2-(2,2,2-trifluoroethyl)-6-trifluoromethyl-2,3-dihydro-1H-isoindol-1-yl]-acetyl}guanidine]
